Measured values: US20060008800A1, “Unc-13 in the modulation of neurotransmission and secretion events” (priority 2002, published 2006)
Entries after “also recorded” stand apart in the source; their conditions may differ.

Legend:
Calmodulin [1] = biological target: Calmodulin (Homo sapiens, UniProt P0DP23); experiment: Tryptophane fluorescence emission of peptides as reporter for Calmodulin binding; conditions: 10 μM peptide; for binding of Ca^2+/Calmodulin: excess calcium
Procedure: FIG. 23: Tryptophane fluorescence emission spectra of peptides reflecting the Calmodulin binding site of rat Munc13-1 and ubMunc13-2. 10 μM of each peptide were measured in NH4Acetate 0.25 M, 1 mM EGTA. Excitation was at 290 nm.
The Excitation shutter was adjusted to 1 nm bandwith, the emission shutter to 8 nm bandwidth. Pathlenght was 3 mm. All measurements were carried out at room temperature. The exact sequences of each peptide are given in the text. […] In case of the Munc13-1 peptide, Calcium independent binding is also observed, while the binding of Munc13-2 peptides strictly requires Ca2+ for binding.
The tryptophane fluorescence of the peptides was used as a reporter for Calmodulin binding in an experimental setup that was essentially identical to the experiments described elsewhere. (O'Neil et al.). Excitation of 10 μM solutions of the peptides in 0.25 M NH4Acetate pH 8 and 1 mM EGTA at 290 nm (bandwidth 1 nm) produced a maximum in the emission (bandwidth 8 nm) of both peptides at 355 nm. […] The same experiment was performed with the peptide derived of ubMunc13-2. […] In view of the evolutionarily conservation of the motif, other members of the protein family are likely to be Calmodulin targets, too.

hippocampal neurons [2] = experiment: α-latrotoxin induced mEPSC/mIPSC activity; type: cell-based, mouse
Procedure: (§1) Microisland culture preparation was performed according to Bekkers and Stevens (1991). The extracellular medium contained (mM): NaCl, 167; KCl, 2.4; HEPES, 10; glucose, 10; CaCl2, 4; MgCl2, 4 (340 mOsm, pH 7.3). Solutions were applied and recordings were performed as described in Rosenmund (1995). To examine synaptically activated currents, experiments were performed using recurrent synapses (autapses) or only single autaptic neuroeses on microisland cultures at room temperature (=24° C.). Pipette solutions included (mM): KCl, 120, or K-Gluconate, 125; HEPES, 10; EGTA, 1; MgCl2, 4.6; Na4ATP, 4; Creatinephosphate, 15; creatinephosphokinase 50 U/ml (320 mOsm, pH 7.3). Wild type and Munc13-1 deficient glutamatergic hippocampal neurons were used to study the characteristics of Munc13-1 and Munc13-1 independent synapses. For these purposes, individual neurons grown on microisland beds of glial cells (Bekkers, 1991) were employed. In this autaptic culture system, where isolated nerve cells make multiple synaptic contacts, so called autapses, with their own dendritic trees, spontaneous transmitter release, release of the readily releasable vesicle pool induced by hypertonic solutions, and action potential evoked release arise from the same synapse population and can be measured readily with patch clamp techniques. Autaptic responses were obtained after brief (1-2 ms) somatic depolarization. This induces an unclamped action potential that is followed by a postsynaptic response with a delay of 2-4 ms. Excitatory, glutamatergic and inhibitory, GABAergic synaptic currents were distinguished by their characteristic pharmacological and kinetic properties. Excitatory glutamatergic cells were mainly characterized because the differential equipment of presynaptic terminals formed by the same axon with Munc13 priming factors is not apparent in GABAergic neurons.
Given that neither action potentials nor hypertonic stimuli successfully evoked synaptic transmission and no mPSCs were detectable in Munc13-1/2 double deficient cells, it is possible that postsynaptic development is impaired in mutant cells. To test this directly, the spider toxin α-latrotoxin was used which allows to partially circumvent the need for priming factors in vesicular release (Augustin, 1999b). […] The average amplitude of these events was 22.7±2.4 pA (FIG. 5B). Both, mEPSC frequency and amplitude values are similar to wild type values (not shown).

[3] = test system: Munc13-1 deficient hippocampal neurons; experiment: EPSC augmentation following high frequency action potential trains in Munc13-1 deficient, Munc13-2 dependent neurons; type: cell-based, mouse
Calmodulin [4] = biological target: T1, Calmodulin (Rattus norvegicus, UniProt P0DP29); experiment: Cosedimentation of Calmodulin from rat brain synaptosome extract with GST fusion proteins; type: binding; conditions: for Calmodulin binding in cosedimentation: 15 μg fusion protein, 3 mM Ca
T1 construct: from tissue; host or cells: rat brain synaptosomes, extracted with 1% Igepal
Procedure: GST fusion proteins containing the Calmodulin binding sites of rat Munc13-1 and ubMunc13-2 as well as GST alone were expressed in bacteria, purified and adsorbed onto glutathione beads in equal amounts for subsequent use in cosedimentation assays with rat brain synaptosome extract. Proteins that bound to the immobilized GST fusion proteins were analyzed by SDS-PAGE and immunoblotting with a specific Calmodulin antibody. Calmodulin binds specifically to wt GST-Munc13-1 (445-567) and GST-ubMunc13-2 (372-494). Calmodulin binding is completely abolished by the point mutations in the conserved tryptophanes (Position 1 in the alignment figure x).
Such a tool is a point mutation in a Munc13 protein that abolishes Calmodulin binding. On basis of the evolutionarily conservation of the tryptophane residues (FIG. 22), and since these hydrophobic residues make contact to Calmodulin, we created expression constructs that contain W464R mutation in case of Munc13-1 and a W387R mutation in case of ubMunc13-2. The effect of these mutations on Calmodulin binding was determined in cosedimentation experiments (FIG. 24). GST-tagged fragments of Munc13-1 (aa 445-567) or ubMunc13-2 (aa 372494) were expressed in bacteria and purified according to standard protocols. 15 μg of each expressed fusion protein were used to test for Calmodulin binding from 2 ml of a rat brain synaptosome extract. Rat brain synaptosomes were extracted with Igepal (1%) at a protein concentration of 2 mg/ml in a buffer containing Tris 50 mM pH 8, NaCl 150 mM, EGTA 1 mM and a cocktail of protease inhibitors. The cosedimentation experiment was performed as described prebviously (Betz, Neuron 30 […] 183-196).

hippocampal neurons [5] = experiment: β-phorbol ester induced potentiation of evoked synaptic currents in autaptic neuron cultures (patch clamp); type: cell-based, mouse; conditions: for effect of PKC inhibitor on β-PE induced increase/potentiation of evoked EPSCs: 3 μM inhibitor, 1 μM PDBU
Procedure: as §1
Design of and infection with Semliki Forest Virus was done according to published procedures (Betz, 2001; Ashery, 2000). Cells were measured 22-26 h after infection.
Routinely, cells from Munc13-1^H567K/Munc13-1^H567K mutants were analyzed 12-20 day after plating and compared to wild type control cells obtained from littermates. In some experiments we employed Munc13-1/Munc13-2 double deficient neurons as model cells to study the characteristics of the Munc13-1^H567K variant in comparison to wild type Munc13-1 following overexpression using the Semliki-Forest-Virus system. In contrast to Munc13-1 deficient glutamatergic hippocampal neurons, which still show measurable glutamate release (10% of wild type levels; Augustin, 1999b), double homozygous Munc13-1/Munc13-2 deletion mutant neurons are characterized by a complete lack of spontaneous and evoked transmitter release but can be rescued by reintroduction of Munc13 proteins. This rescue approach was persued in Munc13-1/Munc13-2 double mutant neurons instead of breeding the Munc13-1^H567K/Munc 3-1^H567K mutation into the Munc13-2 deletion mutant background because it was much faster and allowed the direct comparison of additional mutant (Betz, 2001) and wild type Munc13-1 variants in the same cultures. Autaptic responses were obtained after brief (1-2 ms) somatic depolarization. This induces an unclamped action potential that is followed by a postsynaptic response with a delay of 2-4 ms. Excitatory, glutamatergic synaptic currents were identified by their characteristic pharmacological and kinetic properties.

[6] = 1 nM, Munc13-1/2 double deficient neurons
[7] = cocktail of phosphatase inhibitors: cypermethrin 1 nM, calyculin A 10 μM, cyclosporine A 1 μM

Compound: crakanwlrafnkvrmqlqear (CRAKANWLRAFNKVRMQLQEAR) [Munc13-1 derived peptide]
- calcium dependence of Calmodulin binding (Calmodulin [1]): partially Ca2+ independent binding
- emission spectrum change on addition of Apocalmodulin (Calcium-free Calmodulin) (Calmodulin [1]; equimolar Apocalmodulin, 1 mM EGTA): pronounced blue shift and slight intensity increase
- binding of Ca^2+/Calmodulin (Calmodulin [1]): tighter binding

Compound: α-latrotoxin
- mEPSC amplitude (hippocampal neurons [2]; [6]): 25.6±2.6 pA
- mEPSC-like event frequency (hippocampal neurons [2]; [6]): 0.074±0.024 Hz
- average mEPSC amplitude (hippocampal neurons [2]; 1 nM, Munc13-2 single mutant control neurons): 22.7±2.4 pA
- mEPSC frequency (hippocampal neurons [2]; five minutes following 60 s application of 1 nM, Munc13-2 single mutant control neurons): 23.4±3.9 Hz

Compound: CC1(C)C(C=C(Cl)Cl)C1C(=O)OC(C#N)c1cccc(Oc2ccccc2)c1 (stereo not drawn) [cypermethrin]
- effect on augmentation [3, 7]: ineffective in blocking augmentation; also recorded: did not alter augmentation

Compound: GSTubMunc13-2 (aa 372-494): GST-tagged fragment of rat ubMunc13-2 (aa 372-494) containing the Calmodulin binding site, expressed in bacteria
- Calmodulin binding in cosedimentation (Calmodulin [4]): robustly bound

Compound: C=C1[C@@H](O)[C@@H]2O[C@]3(CC[C@H](/C=C/[C@@H](C)[C@@H]4CC(C)=C[C@@]5(O[C@H](C[C@@](C)(O)C(=O)O)CC[C@H]5O)O4)O3)CC[C@H]2O[C@@H]1[C@@H](O)C[C@H](C)[C@H]1O[C@@]2(CCCCO2)CC[C@H]1C [okadaic acid]
- effect on augmentation ([3]; 1 μM, alone): unable to block augmentation; also recorded: did not alter augmentation

Compound: GSTMunc13-1 (aa 445-567): GST-tagged fragment of rat Munc13-1 (aa 445-567) containing the Calmodulin binding site, expressed in bacteria
- calcium dependence of Calmodulin binding in cosedimentation (Calmodulin [4]): partially independent of Ca^2+
- Calmodulin binding in cosedimentation (Calmodulin [4]): robustly bound

Compound: COc1ccc2c(c1)c(C1=C(c3c[nH]c4ccccc34)C(=O)NC1=O)cn2CCCN(C)C [GÖ 6983]
- β-PE induced increase in evoked EPSCs (hippocampal neurons [5]; 1 μM PDBU after preincubation for 2 min and in the presence of 3 μM GÖ 6983, wild type neurons): 150±6 % of baseline values
- effect of PKC inhibitor on β-PE induced increase/potentiation of evoked EPSCs (hippocampal neurons [5]; wild type neurons): had no effect

Compound: C/C1=C/C(=O)O[C@@H]2C[C@@H](CC[C@H](C)/C=C\CC1)O[C@@](O)([C@@H]1CSC(=O)N1)C2 [latrunculin B]
- effect on augmentation ([3]; 10 μM): ineffective in blocking augmentation; also recorded: failed to affect augmentation

Compound: CN[C@@H]1C[C@H]2O[C@@](C)([C@@H]1OC)n1c3ccccc3c3c4c(c5c6ccccc6n2c5c31)C(=O)NC4 [staurosporine]
- effect on augmentation ([3]; 100 nM): failed to suppress augmentation

Compound: CC(=O)OCOC(=O)CN(CCOCCOCCN(CC(=O)OCOC(C)=O)CC(=O)OCOC(C)=O)CC(=O)OCOC(C)=O [EGTA-AM]
- EPSC augmentation ([3]; 10 Hz train, pretreatment 50 μM, 20 min): 2.0±0.4 fold
- maximal EPSC augmentation ([3]; 40 Hz train, pretreatment 50 μM, 20 min): 11.0±1.5 fold
- augmentation in frequency-augmentation profile ([3]; frequencies below 40 Hz, pretreatment 50 μM, 20 min): strongly reduced

Compound: CN(C)CCCn1cc(C2=C(c3c[nH]c4ccccc34)C(=O)NC2=O)c2ccccc21 [bisindolylmaleimide I]
- potentiation of evoked EPSCs by 1 μM PDBU after bisindolylmaleimide I pretreatment (hippocampal neurons [5]): 73±8.3%
- effect of PKC inhibitor on β-PE induced increase/potentiation of evoked EPSCs (hippocampal neurons [5]; wild type neurons): does not prevent
- reduction of evoked EPSC responses (rundown) (hippocampal neurons [5]; 3 μM, four minute application period, wild type neurons): 41±11%

Compound: cqarahwfravtkvrlqlqeis (CQARAHWFRAVTKVRLQLQEIS) [peptide derived of ubMunc13-2]
- calcium dependence of Calmodulin binding (Calmodulin [1]): absolutely dependent on the presence of calcium
- binding of Ca^2+/Calmodulin (Calmodulin [1]): bound

Compound: NS(=O)(=O)c1cccc2c1c([N+](=O)[O-])cc1nc(O)c(O)nc12 [NBQX]
- effect on α-latrotoxin induced mEPSC signals (hippocampal neurons [2]; Munc13-2 deficient and Munc13-1/2 double deficient neurons): blocked

Compound: COC[C@@H]([C@H](O)[C@H](O)C(=O)NCC[C@H](C)c1nc(/C=C/C[C@@H]2O[C@]3(C[C@@H](O)[C@@H]2C)O[C@H]([C@H](C[C@H](O)[C@H](C)[C@H](O)[C@H](C)/C=C(C)/C(C)=C/C=C/C(C)=C\C#N)OC)[C@H](OP(=O)(O)O)C3(C)C)co1)N(C)C [calyculin A]
- effect on augmentation [3, 7]: did not alter augmentation
- effect on augmentation ([3]; cocktail of phosphatase inhibitors: cypermethrin 1 nM, calyculin A 10 μM, cyclosporine A 1 μM, listed as calyculinA): ineffective in blocking augmentation
